Source: patent US10172797B2, “Extruded extended release abuse deterrent pill” (Pharmaceutical Manufacturing Research Services, Inc., priority 2013, dated 2019)

Key:
[1] = cited from earlier work
[2] = Alcohol solubility tested (200 proof ethanol, 0.22 micrometer PTFE filter); type: physicochemical
From the text: The following table lists the relative solubility of exemplary components of a formulation. A number of different dyes are listed along with their solubility information taken from the various literature sources and tested experimentally (200 proof ethanol and filtered through a 0.22 micrometer PTFE filter).

O=C([O-])C1=NN(c2ccc(S(=O)(=O)[O-])cc2)C(=O)C1N=Nc1ccc(S(=O)(=O)[O-])cc1.[Na+].[Na+].[Na+] (stereo not drawn) [Yellow #5]
Yes: Alcohol Solubility (Literature) [1] | Water Solubility [1] | Alcohol Solubility (tested) [2]

CCN(Cc1cccc(S(=O)(=O)[O-])c1)c1ccc(C(=C2C=CC(=[N+](CC)Cc3cccc(S(=O)(=O)[O-])c3)C=C2)c2ccccc2S(=O)(=O)[O-])cc1.[Na+].[Na+] [Blue #1]
Yes: Alcohol Solubility (Literature) [1] | Water Solubility [1] | Alcohol Solubility (tested) [2]

O=C1/C(=C2\Nc3ccc(S(=O)(=O)[O-])cc3C2=O)Nc2ccc(S(=O)(=O)[O-])cc21.[Na+].[Na+] [Blue #2]
Yes: Alcohol Solubility (Literature) [1] | Water Solubility [1] | Alcohol Solubility (tested) [2]

COc1cc(S(=O)(=O)[O-])c(C)cc1N=Nc1c(O)ccc2cc(S(=O)(=O)[O-])ccc12.[Na+].[Na+] [Red #40]
Yes: Alcohol Solubility (Literature) [1] | Water Solubility [1] | Alcohol Solubility (tested) [2]
